Laboratory results published in patent US20020098520A1, “Cell tests and diagnostic index for alzheimer's disease” (priority 1993, published 2002).
Where two headings read alike, the source gives them in different places.

Tests used:
[1] = test system: 113 pS K^+ channel; assay: Patch-clamp, cell-free patches: channel sensitivity to blockers; assay type: cell-based, human; details: outside-out patches, n=4 YC, n=3 AC
Experimental: (§1) Patch-clamp experiments were performed at room temperature (21-23° C.), following standard procedures set forth in Sakmann, B. and Neher, E. (1983) Single Channels Recordings (Plenum New York) and Kukuljan, M., et al. (1991) J. Membrane Biol. 119:187. Before recordings, […] culture medium was replaced with the following solution: 150 mM NaCl, 5 mM KCl, 2 mM CaCl2, 1 MM MgCl2, 10 mM HEPES […] pH=7.4. Pipettes were made from Blue Tip capillary tubes (I.D. 1.1-1.2 mm) using a BB-CH Mecanex puller, and then filled with a high potassium solution of 140 mM KCl, 2 mM CaCl2, 1 mM MgCl2, 10 mM HEPES (NaOH), pH=7.4. Pipette resistances were approximately 6 MΩ. Records were obtained using an Axopatch-1C amplifier (dc-10 kHz), stored on tape (Toshiba PCM-video recorder), and later transferred to a personal computer using an Axolab interface. Only recordings lasting for at least 3 minutes were considered for final analysis. The pClamp suite of programs was used for single-channel data acquisition and analysis. Amplifier, interface and software were obtained from Axon Instruments (Foster City, Calif.).

[2] = test system: 166 pS K^+ channel; assay: as above; assay type: cell-based, human; details: outside-out patches
Experimental: as §1

[3] = test system: control fibroblasts; details: after 100 MM TEA addition, control cells n=4
Experimental: as §1

[4] = test system: human skin fibroblasts (AD, AC, YC); details: for TEA Response Blind / TEA Response Non Blind: one cell line per table line
Experimental: Thirteen AD, ten AC, and six YC were used for the calcium-imaging experiments. Culture medium was replaced and washed three times with basal salt solution (“BSS”) consisting of 140 mM NaCl, 5 mM KCl2.5 mM CaCl2, 1.5 mm MgCl2, 5 mM glucose, 10 mM HEPES (NaOH), pH 7.4. Nominally Ca^2+ free BSS was prepared as BSS without adding CaCl2.
Fura-2 (acetyloxymethyl ester) (Fura-2AM) was purchased from Molecular Probes (Eugene, Oreg.) and stored as a 1 mM solution in dimethylsulfoxide. Fura-2AM was added to a final concentration of 2 µM and cells were incubated at room temperature (21°-23° C.) for 60 minutes. After incubation, cells were washed at least three times with BSS at room temperature before [Ca^2+]i determinations. Fluorescence was measured with a Hamamatsu ARGUS 50 imaging system (Hamamatsu Photonics, Japan) under the control of a personal computer (Hamamatsu imaging software package). Excitation at 340 nm and 380 nm was attenuated with neutral density filters. Fluorescent images were obtained with a 400 nm dichroic mirror and a 510 nm long-pass barrier filter. The objective lens was an X10 Nikon UV fluor. Fluorescence was measured within a uniformly illuminated fraction (¼) of the whole image.
The averaged Ca^2+ responses within 15×15 pixels in cytosolic and in nuclear cellular compartments obtained were quantified with ratios between emitted 510 nm fluorescence activated at 340 nm and fluorescence emitted at 510 nm with activation at 380 nm. These ratios were transformed to absolute values of [Ca^2+], after calibration based on the following equation:
R=Rmax+(Rmin−Rmax)/(1+([Ca^2+]i/Kd)^b).
Here R denotes fluorescence intensity illuminated by 340 nm divided by fluorescence intensity illuminated by 380 nm (F340/F380), and Rmax and Rmin are the values of R when the concentration of calcium is at a maximum and a minimum (i.e., the maximum and minimum value measurable by the machine under the measuring conditions), respectively. Kd is a dissociation constant of fura-2 for Ca^2+ and was determined as 240 nM. The value of b, which determined the degree of asymmetry, was 1.2. […] A response of 100% [Ca^+2]i elevation in at least 10% of cells in a line was, therefore, considered to be a conservative criterion for a positive response.

[5] = test system: neuropathological non-AD fibroblasts
[6] = test system: cultured fibroblasts (AD, controls, Es)
Experimental: Culture medium was removed and cells were washed at least three times with BSS (in mM: NaCl 140, KCl 5, CaCl2 2.5, MgCl2 1.5, HEPES 10, Glucose 5, pH=7.4). The fluorescent probe was loaded by incubating the cells in 2 μM (in BSS) fura 2-AM (Molecular Probes) for 60 min at room temperature. After loading, cells were washed thoroughly with BSS or BSS-0 Ca^2+ (in mM: NaCl 140, KCl 5, CaCl2 0.1, MgCl2 1.5, EGTA 1, HEPES 10, Glucose 5, pH=7.4). After washes, 1 ml of fresh solution was added for intracellular Ca^2+ baseline measurements. […] This solution was adjusted in order to introduce no osmolality changes. […] Bradykinin (Calbiochem) in BSS and BSS-0 Ca^2+ (1 ml) was also used at concentrations of 100 pM, 1 nm and 10 nM. Fluorescent images at 340 and 380 nm were acquired at a rate of 2.6/sec. for 200 sec, with a Hamamatsu Argus 50 system (Hamamatsu Photonics). The objective lens was a 10×Nikon fluor. Only the ¼ evenly illuminated area of the whole image was acquired. Individual ratio values were obtained off-line for all cells within the area of interest. Three to five dishes of a given cell line were used for each experimental condition. The number of cells measured per cell line was at least 50. In most cases, experiments for each cell line were repeated on at least one separate occasion (minimum one week interval).

[7] = 100 mM TEA, Age-Matched Control Fibroblasts
[8] = 100 mM TEA, Young Control Fibroblasts
[9] = Alzheimer's Patients, total 738 cells
[10] = Young Controls, total 532 cells

Compound: CC[N+](CC)(CC)CC [TEA, tetraethylammonium]
- sensitivity of the 113 pS channel to TEA [1]: sensitive
- sensitivity of the 166 pS channel to TEA [2]: only the 113 PS channel was sensitive
- depolarization of control cells [3]: 13-20 mV
- [Ca^2+]i elevation in response to TEA ([4]; 1 mM TEA, YC fibroblasts): elevated
- [Ca^2+]i elevation in response to TEA ([4]; 10 mM TEA, AC fibroblasts): elevated
- [Ca^2+]i elevation in response to TEA ([4]; 10 mM TEA, YC fibroblasts): elevated
- [Ca^2+]i elevation in response to TEA ([4]; 100 mM TEA, AC fibroblasts): elevated
- return of [Ca^2+]i to basal levels ([4]; 100 mM TEA, YC and AC fibroblasts): 100 s
- [Ca^2+]i elevation in response to TEA ([4]; 100 mM TEA, YC fibroblasts): elevated
- TEA Response Blind [4, 7]: +
- TEA Response Non Blind [4, 7]: +
- TEA Response Blind ([4]; 100 mM TEA, Alzheimer's Disease Fibroblasts): −
- TEA Response Non Blind ([4]; 100 mM TEA, Alzheimer's Disease Fibroblasts, criterion 100% elevation in at least 10% of cells): −
- TEA Response Blind [4, 8]: +
- TEA Response Non Blind [4, 8]: +
- Number of Cell Lines, Increase in [Ca^+2]i with 100 mM TEA ([4]; Aged Controls, total 10 cell lines): 10
- Number of Cells, Increase in [Ca^+2]i with 100 mM TEA ([4]; Aged Controls, total 417 cells): 119
- Percent of cells, Increase in [Ca^+2]i with 100 mM TEA ([4]; Aged Controls, total 417 cells): 29%
- Number of Cell Lines, Increase in [Ca^+2]i with 100 mM TEA ([4]; Alzheimer's Patients, total 13 cell lines): 0
- Number of Cells, Increase in [Ca^+2]i with 100 mM TEA [4, 9]: 4
- Percent of cells, Increase in [Ca^+2]i with 100 mM TEA [4, 9]: 0.5%
- cells with a minimum of 100% [Ca^+2]i elevation ([4]; TEA application, every control cell line except one young control): at least 18 % of cells
- cells with 100% [Ca^+2]i elevation ([4]; TEA application, the only AD cell line with any response): 4 % of cells
- Number of Cell Lines, Increase in [Ca^+2]i with 100 mM TEA ([4]; Young Controls, total 6 cell lines): 5
- Number of Cells, Increase in [Ca^+2]i with 100 mM TEA [4, 10]: 145
- Percent of cells, Increase in [Ca^+2]i with 100 mM TEA [4, 10]: 27%
- TEA ([5]; Parkinson's donor cell line): +
- TEA ([5]; Schizophrenia donors, one cell line per table line): +
- TEA ([5]; Wernicke-Kors. donors, one cell line per table line): +
- % of responding cells in Es cell lines ([6]; 100 mM TEA, 3 Es cell lines): lower % of responding cells
- number of control cell lines with significant Ca^2+ elevations meeting CR ([6]; 100 mM TEA, 11 control cell lines): 11
- number of AD cell lines that did not meet CR ([6]; 100 mM TEA, 14 AD cell lines): 10
- % of responding cells in AD cell lines compared to controls ([6]; TEA-induced responses): significantly reduced
